According to patent publication US20060263355A1, “Treatment of bone disorders” (priority 2005, published 2006):

Legend:
[1] = test system: serological markers of inflammation and bone turnover; assay: Serum biochemical markers in RA patients, Phase IIa study of rituximab; type: in vivo, human; settings: week 24 vs baseline, n = 40
Method: Serum samples were analyzed from RA+ patients who received either methotrexate (MTX) alone or MTX in combination with a single course of rituximab as part of a Phase IIa study of rituximab in RA to be reported elsewhere. The following markers were measured at baseline and Week 24: anti-CCP, CRP, S100, SAA, PINP and Osteocalcin (OC).
Biomarker data were analyzed using a non-parametric approach by comparing the percentage changes at 24-weeks from baseline in MTX group with the RTX+MTX group. The median percent change from baseline was plotted using the following formula: Pcfb1(marker)=((slope—lr*study time at last visit)/intercept—lr)*100
where slope_lr=slope of linear regression for each patient • intercept_lr=intercept of linear regression for each patient.

[2] = cited from earlier work; for effect in rat adjuvant / experimental arthritis: in vivo
[3] = ACR50 clinical response in RA, Phase IIa study of rituximab; type: in vivo, human; settings: two infusions of rituximab two weeks apart with ongoing MTX, versus MTX alone
[4] = Bone remodeling in animals (Example 2); settings: rats, subcutaneously once per day for 35 days
[5] = Periodontal disease model (Example 5); type: in vivo; settings: applied to the periodontal pocket
Method: Rituximab may be used to regenerate bone and ligament lost to periodontal disease. In this model teeth showing 20% to 80% reduction of surrounding jaw bone are scaled, then a full-thickness gingival flap is made by an incision to expose the jaw bone and tooth root. The root is planed to remove bacterial plaque and calculus. Rituximab is applied to the periodontal pocket in a 2.5% HPMC gel at a dose of […] per tooth, or alternatively a solution of rituximab in 100 mM sodium acetate buffer, pH 6.0 is added to powdered bone to provide a dosage of […] rituximab per tooth. The material is thoroughly mixed and applied to the exposed periodontal pocket. In both cases, the gingival flap is then closed and held in place by suturing.

[6] = test system: TRAP-positive osteoclasts; assay: TRAP assay, osteoclasts formed in vitro (Example 4)
Method: TRAP refers to tartrate-resistant acid phosphatase that identifies osteoclast-like cells.
In this test, naphthol AS-MX phosphate 5 mg (Sigma, St. Louis, Mo.) is resolved in 0.5 ml of N,N-dimethylformamide (Wako). Thirty milligrams of fast red violet LB salt (Sigma) and 50 ml of 0.1 M sodium acetate buffer (pH 5.0) containing 50 mM sodium tartrate are added to the mixture (the TRAP-staining solution). Cells are fixed with 3.7% (v/v) formaldehyde in Ca^2− and Mg^2+-free phosphate-buffered saline for 10 min, fixed again with ethanol-acetone (50:50, v:v) for 1 min, and incubated with the TRAP-staining solution for 10 min. at room temperature. TRAP-positive osteoclasts appear as red cells. The incubation period should not exceed 10 min. since cells other than osteoclasts become weakly positive with time. After staining, cells are washed with distilled water, and TRAP-positive multinucleated cells having three or more nuclei are counted as osteoclasts under a microscope (Nicholson et al., J. Clin. Invest. 78: 355 (1986)).

B cells = settings: cynomolgus monkey; cited from earlier work
[7] = pH 5; cited from earlier work
[8] = test system: serological markers of inflammation and bone turnover; assay: Serum biochemical markers in RA patients, Phase IIa study of rituximab; type: in vivo, human; settings: RA patients treated with rituximab
lymphoid B-cell lines = settings: cited from earlier work
[9] = in vivo; cited from earlier work
[10] = in vivo; cited from earlier work; remark: listed apart in the source

CN(Cc1cnc2nc(N)nc(N)c2n1)c1ccc(C(=O)N[C@@H](CCC(=O)O)C(=O)O)cc1 [MTX, methotrexate]
Anti-CCP (anti-citrullinated peptide antibody), median % change from baseline at 24 weeks [1]: −21.03% | CRP (C-reactive protein), median % change from baseline at 24 weeks [1]: −22.21% | OC (osteocalcin), median % change from baseline at 24 weeks [1]: 1.94% | P-1NP (procollagen type 1 N-terminal propeptide), median % change from baseline at 24 weeks [1]: −11.78% | S100 (S100 A8/9), median % change from baseline at 24 weeks [1]: −14.31% | SAA (serum amyloid A), median % change from baseline at 24 weeks [1]: −10.55%

O=P(O)(O)C(O)(Cc1cccnc1)P(=O)(O)O [NE58095]
effect in rat adjuvant / experimental arthritis [2]: prevents bone erosion and preserves joint architecture

O=P(O)(O)C(O)(Cn1ccnc1)P(=O)(O)O [Zoledronate]
effect in rat adjuvant / experimental arthritis [2]: protects against meta hyseal intracortical defets

O=P(O)(O)C(Cl)(Cl)P(=O)(O)O [clodronate]
effect in arthritis study at 20 mg/kg/day iv infusion ([2]; 20 mg/kg/day iv infusion): decreases pedal inflammation and bone resorption, but also inhibits bone formation | effect in rat adjuvant / experimental arthritis [2]: decrease weight loss, pedal inflammation, and bone resorption

CC(O)(P(=O)(O)O)P(=O)(O)O [etridronate]
effect in rat adjuvant / experimental arthritis [2]: decrease weight loss, pedal inflammation, and bone resorption

Rituximab + MTX: MTX in combination with a single course of rituximab
ACR50 response at 24 weeks [3]: significantly higher clinical responses | Anti-CCP (anti-citrullinated peptide antibody), median % change from baseline at 24 weeks [1]: −45.78% | CRP (C-reactive protein), median % change from baseline at 24 weeks [1]: −59.07% | OC (osteocalcin), median % change from baseline at 24 weeks [1]: 28.76% | P-1NP (procollagen type 1 N-terminal propeptide), median % change from baseline at 24 weeks [1]: 13.64% | S100 (S100 A8/9), median % change from baseline at 24 weeks [1]: −52.73% | SAA (serum amyloid A), median % change from baseline at 24 weeks [1]: −77.02%

humanized 2H7: humanized CD20 antibody, or antigen-binding fragment, comprising at least CDR H3 of SEQ ID NO:12 and human VHIII framework
bone remodeling versus controls [4]: effective in enhancing bone remodeling over the controls | regeneration of surrounding jaw bone versus placebo [5]: at least partially regenerated | performance as positive control in TRAP assay [6]: effective as a positive control

rituximab
bone remodeling versus controls [4]: effective in enhancing bone remodeling over the controls | B-cell depletion in vivo (B cells): depletes B cells from the peripheral blood, lymph nodes, and bone marrow | minimum shelf life [7]: two | regeneration of surrounding jaw bone versus placebo [5]: at least partially regenerated | Total immunoglobulin levels [8]: not affected significantly | complement-dependent cytotoxicity (CDC) (lymphoid B-cell lines): lyses lymphoid B-cell lines | performance as positive control in TRAP assay [6]: effective as a positive control | patients experiencing at least one adverse event during their first infusion [9]: 36% | patients admitted to the hospital for overnight observation after moderate fever and rigors following the first infusion [10]: 1 of 10
